Among the data in patent US8575135B2 (Gilead Sciences, Inc., priority 2011, dated 2013) are EC50 values, retold here.

The structures appear in SMILES notation. pEC50: −log10 of the molar value. Like-named read-outs stand apart in the source and are kept apart here.

What all share (test): microbe, parasite or virus in culture
For experiment [1], the system named is NS5A chimeric genotype 1b Con1 replicon with genotype 4a ED43 strain NS5A gene. In kind it is cell-based, HCV. The note with it: Hepatitis C virus.
The subject of experiment [2] is stable HCV 2a JFH-1 Rluc replicon cells (L31 present in NS5A). In kind it is cell-based. The note with it: Hepatitis C virus; for pEC50: read-out: 2a JFH; for EC50: read-out: 2a JFH (nM).
For experiment [3], the system named is NS5A chimeric genotype 2a JFH-1 replicon with genotype 2b MD2b-1 strain NS5A gene (M31 present). In kind it is cell-based, HCV. To be noted: Hepatitis C virus; for pEC50: read-out: 2b. As to the method:
(§1) Evaluation of Cell-Based Anti-HCV Activity:
(§2) Antiviral potency (EC50) was determined using a Renilla luciferase (RLuc)-based HCV replicon reporter assay. […] To perform the assay for genotype 2a (with M31 present in NS5A) or 2b, NS5A chimeric genotype 2a JFH-1 replicons that encodes a RLuc-Neo reporter and either genotype 2a J6 strain NS5A gene or genotype 2b MD2b-1 strain NS5A gene (both with M31 present) respectively, were either transiently transfected (t) into Huh-Lunet cells or were established as stably replicating replicon cells (s) is provided. Either cells were dispensed into 384-well plates for EC50 assays. To perform the assay for genotype 3 and 4, NS5A chimeric genotype 1b Con1 replicons that encodes a Pi-RLuc reporter and either genotype 3a S52 strain NS5A gene or genotype 4a ED43 strain NS5A gene respectively, were transiently transfected (t) into Huh-Lunet cells, which were subsequently dispensed into 384-well plates. Compounds were dissolved in DMSO at a concentration of 10 mM and diluted in DMSO either manually or using an automated pipeting instrument. Serially 3-fold diluted compounds were either manually mixed with cell culture media and added to the seeded cells or directly added to the cells using an automated instrument. […] 72 hours later, cells were lysed and Renilla luciferase activity quantified as recommended by the manufacturer (Promega-Madison, Wis.). Non-linear regression was performed to calculate EC50 values.

Experiment [4] has as its system NS5A chimeric genotype 2a JFH-1 replicon with genotype 2a J6 strain NS5A gene (M31 present). Format: cell-based, HCV. The note with it: Hepatitis C virus; for pEC50: read-out: 2a J6; for EC50: read-out: 2a Jb (t) (nM). As to the method: as §1, §2
Experiment [5] concerns stable HCV 1a RLuc replicon cells (genotype 1a H77 replicon). Format: cell-based. The note with it: Hepatitis C virus; for pEC50: read-out: 1a; for EC50: read-out: 1a (nM). As to the method: as §1, §2

Consider `COC(=O)N[C@H](C(=O)N1[C@@H](C)CC[C@H]1c1ncc(-c2ccc3c(c2)COc2cc4c(ccc5nc([C@@H]6CCCN6C(=O)[C@@H](NC(=O)OC)C6CCOCC6)[nH]c54)cc2-3)[nH]1)C(C)C` [Compound 602], for which the pEC50 in experiment [1] (read-out: 4a), in experiment [2], in experiment [3], in experiment [4] and in experiment [5] was more than 9.00 each time. The EC50 in experiment [1] (read-out: 4a (s) (nM)) came to 0.013 nM; in experiment [2] it was 0.01 nM; in experiment [3] (read-out: 2b (s) (nM)), 0.036 nM; in experiment [3] (read-out: 2b (t) (nM)) it was 0.036 nM; in experiment [4], 0.053 nM; in experiment [5] it was 0.025 nM.
As to `CC[C@@H](C)[C@H](NC(=O)OC)C(=O)N1C[C@@H](COC)C[C@H]1c1nc2ccc3cc4c(cc3c2[nH]1)OCc1cc(-c2cnc([C@@H]3CC[C@H](C)N3C(=O)[C@@H](NC(=O)OC)[C@H](C)CC)[nH]2)ccc1-4` [Compound 643], the pEC50 in experiment [2], in experiment [3], in experiment [4] and in experiment [5] was more than 9.00 each time. For the same molecule, the EC50 in experiment [2] worked out at 0.013 nM; in experiment [3] (read-out: 2b (t) (nM)), 0.607 nM; in experiment [4], 0.206 nM; in experiment [5], 0.015 nM.
Turning to `CC[C@H](C)[C@H](NC(=O)OC)C(=O)N1C[C@@H](COC)C[C@H]1c1ncc(-c2ccc3c(c2)COc2cc4c(ccc5nc([C@@H]6CC[C@H](C)N6C(=O)[C@@H](NC(=O)OC)C(C)C)[nH]c54)cc2-3)[nH]1` [Example OF, Methyl {(2S,3S)-1-[(2S,4S)-2-(5-{2-[(2S,5S)-1-{(2S)-2-[(methoxycarbonyl)amino]-3-methylbutanoyl}-5-methylpyrrolidin-2-yl]-1,11-dihydroisochromeno[4′,3′:6,7]naphtho[1,2-d]imidazol-9-yl}-1H-imidazol-2-yl)-4-(methoxymethyl)pyrrolidin-1-yl]-3-methyl-1-oxopentan-2-yl}carbamate], the pEC50 in experiment [2], in experiment [3], in experiment [4] and in experiment [5] was more than 9.00 in each case. Also, the EC50 in experiment [2] is 0.008 nM; in experiment [3] (read-out: 2b (t) (nM)), 0.196 nM; in experiment [4], 0.445 nM; in experiment [5], 0.01 nM.
For the molecule `CC[C@@H](C)[C@H](NC(=O)OC)C(=O)N1C[C@@H](COC)C[C@H]1c1ncc(-c2ccc3c(c2)COc2cc4c(ccc5nc([C@@H]6CC[C@H](C)N6C(=O)[C@@H](NC(=O)OC)C(C)C)[nH]c54)cc2-3)[nH]1` [Example OG, Methyl {(2S)-1-[(2S,5S)-2-(9-{2-[(2S,4S)-1-[N-(methoxycarbonyl)-L-alloisoleucyl]-4-(methoxymethyl)pyrrolidin-2-yl]-1H-imidazol-5-yl}-1,11-dihydroisochromeno[4′,3′:6,7]naphtho[1,2-d]imidazol-2-yl)-5-methylpyrrolidin-1-yl]-3-methyl-1-oxobutan-2-yl}carbamate], the pEC50 in experiment [2], in experiment [3], in experiment [4] and in experiment [5] was more than 9.00 in each case. The EC50 in experiment [2] stood at 0.008 nM; in experiment [3] (read-out: 2b (t) (nM)), 0.437 nM; in experiment [4], 0.601 nM; in experiment [5], 0.009 nM.
For `COC[C@H]1C[C@@H](c2ncc(-c3ccc4c(c3)COc3cc5c(ccc6nc([C@@H]7CCCN7C(=O)[C@@H](NC(=O)OC)C(C)C)[nH]c65)cc3-4)[nH]2)N(C(=O)[C@H](N)c2ccccc2)C1` [Example OL, Methyl {(2S)-1-[(2S)-2-(9-{2-[(2S,4S)-[(2R)-2-amino-2-phenylacetyl]-4-(methoxymethyl)pyrrolidin-2-yl]-1H-imidazol-5-yl}-1,11-dihydroisochromeno[4′,3′:6,7]naphtho[1,2-d]imidazol-2-yl)pyrrolidin-1-yl]-3-methyl-1-oxobutan-2-yl}carbamate], the pEC50 in experiment [2], in experiment [3], in experiment [4] and in experiment [5] was more than 9.00 each time. Besides, the EC50 in experiment [2] was determined as 0.012 nM; in experiment [3] (read-out: 2b (s) (nM)), 0.052 nM; in experiment [3] (read-out: 2b (t) (nM)), 0.052 nM; in experiment [4], 0.07 nM; in experiment [5] it was 0.047 nM.
With `CC[C@H](C)[C@H](NC(=O)OC)C(=O)N1[C@@H](C)CC[C@H]1c1ncc(-c2ccc3c(c2)COc2cc4c(ccc5nc([C@@H]6C[C@H](COC)CN6C(=O)[C@@H](NC(=O)OC)C(C)C)[nH]c54)cc2-3)[nH]1` [Example OX, Methyl {(2S)-1-[(2S,4S)-2-(9-{2-[(2S,5S)-1-{(2S,3S)-2-[(methoxycarbonyl)amino]-3-methylpentanoyl}-5-methylpyrrolidin-2-yl]-1H-imidazol-5-yl}-1,11-dihydroisochromeno[4′,3′:6,7]naphtho[1,2-d]imidazol-2-yl)-4-(methoxymethyl)pyrrolidin-1-yl]-3-methyl-1-oxobutan-2-yl}carbamate], the pEC50 in experiment [2], in experiment [3], in experiment [4] and in experiment [5] was more than 9.00 each time. For the same molecule, the EC50 was 0.006 nM in experiment [2], 0.107 nM in experiment [3] (read-out: 2b (t) (nM)), 0.113 nM in experiment [4] and 0.007 nM in experiment [5].
Take `COC(=O)N[C@H](C(=O)N1C[C@@H](COC(F)F)C[C@H]1c1ncc(-c2ccc3c(c2)COc2cc4c(ccc5nc([C@@H]6CC[C@H](C)N6C(=O)[C@@H](NC(=O)OC)C(C)C)[nH]c54)cc2-3)[nH]1)C(C)C` [Example PT, methyl {(2S)-1-[(2S,4S)-4-[(difluoromethoxy)methyl]-2-(5-{2-[(2S,5S)-1-{(2S)-2-[(methoxycarbonyl)amino]-3-methylbutanoyl}-5-methylpyrrolidin-2-yl]-1,11-dihydroisochromeno[4′,3′:6,7]naphtho[1,2-d]imidazol-9-yl}-1H-imidazol-2-yl)pyrrolidin-1-yl]-3-methyl-1-oxobutan-2-yl}carbamate]: the pEC50 in experiment [2], in experiment [3], in experiment [4] and in experiment [5] was more than 9.00 each time. In addition, the EC50 stood at 0.007 nM in experiment [2], 0.182 nM in experiment [3] (read-out: 2b (t) (nM)), 0.383 nM in experiment [4] and 0.007 nM in experiment [5].
Turning to `COC[C@H]1C[C@@H](c2ncc(-c3ccc4c(c3)COc3cc5c(ccc6nc([C@@H]7C[C@H](COC(F)F)CN7C(=O)[C@@H](NC(=O)OC)C(C)C)[nH]c65)cc3-4)[nH]2)N(C(=O)[C@@H](NC(=O)OC)C(C)C)C1` [Example PU, methyl {(2S)-1-[(2S,4S)-2-(5-{2-[(2S,4S)-4-[(difluoromethoxy)methyl]-1-{(2S)-2-[(methoxycarbonyl)amino]-3-methylbutanoyl}pyrrolidin-2-yl]-1,11-dihydroisochromeno[4′,3′:6,7]naphtho[1,2-d]imidazol-9-yl}-1H-imidazol-2-yl)-4-(methoxymethyl)pyrrolidin-1-yl]-3-methyl-1-oxobutan-2-yl}carbamate], the pEC50 in experiment [2], in experiment [3], in experiment [4] and in experiment [5] was more than 9.00 throughout. For the same molecule, the EC50 in experiment [2] stood at 0.006 nM; in experiment [3] (read-out: 2b (t) (nM)) it was 0.442 nM; in experiment [4] it was 0.068 nM; in experiment [5] it was 0.012 nM.
